Results reported in patent US20070225202A1, “Methods for Identifying Modulators of Active Kit Tyrosine Kinase Receptor” (priority 2003, published 2007).

Experiments:
[1] = tested on: constitutively active KIT mutants exhibiting mutations in the juxtamembrane domain; settings: cited from earlier work
[2] = tested on: KIT816 mutants; settings: previous studies; cited from earlier work
[3] = tested on: HMC1.1 cells (naturally expressing KITV560G); test: cells; settings: Homo sapiens, 72 h, read-out: inhibition of proliferation
Procedure: The cell-viability assay was performed using an ATPlite™ assay (PerkinElmer Life Sciences, Boston, Mass.), according to the manufacturer's protocol. […] Cells were incubated for 72 hours in the presence or absence of KIT inhibitors and cell viability measured

[4] = tested on: KITD814V and KITD814Y; settings: KITD814V and KITD814Y expressed in transfected cells; cited from earlier work

Cc1ccc(NC(=O)c2ccc(CN3CCN(C)CC3)cc2)cc1Nc1nccc(-c2cccnc2)n1 [Gleevec]
inhibition of constitutively active KIT mutants [1]: inhibit constitutively active KIT mutants
effectiveness against KIT816 mutants [2]: ineffective
inhibition at 0.1 µM [3]: ~80%

Cc1ccc(-c2nn(C(C)(C)C)c3ncnc(N)c23)cc1 [PP1]
inhibition of activated KIT receptors [4]: act as inhibitors of activated KIT receptors

CC(C)(C)n1nc(-c2ccc(Cl)cc2)c2c(N)ncnc21 [PP2]
inhibition of activated KIT receptors [4]: act as inhibitors of activated KIT receptors
